Experimental findings from patent US10947253B2, “Fused polycyclic dimers” (Ankh Life Sciences Limited, priority 2019, dated 2021) are described below.

Assay type in all cases: cell-based
In assay [1] the test system is MIA Paca-2. The assay can be described thus: MTT growth inhibition (in vitro cytotoxicity), MIA Paca-2. To be noted: Homo sapiens, average IC50. As for the experimental part:
(§1) The following Table sets forth the IC50 values of harmaline and quinoline analogs against 23 human cancer cell lines. Growth inhibition effects (in vitro cytotoxicity) on pancreatic, endometrial, breast, lung, ovarian, renal, cervical, lymphoma, and myeloma cancer cells were determined by MTT assays and represented by average IC50 values. In the Table, the results are given in terms of μM, and nd=not determined.

Assay [2] has as its system ASPC-1. The assay can be described thus: MTT growth inhibition (in vitro cytotoxicity), ASPC-1. To be noted: Homo sapiens, ASPC1, average IC50. On the procedure: as §1
The test system of assay [3] is A2780. The assay can be described thus: MTT growth inhibition (in vitro cytotoxicity), A2780. To be noted: Homo sapiens, average IC50. As for the experimental part:
as §1

Assay [4] relates to FaDu. The assay can be described thus: MTT growth inhibition (in vitro cytotoxicity), FaDu. To be noted: Homo sapiens, average IC50. As for the experimental part: as §1
For assay [5], the system named is DoHH-2. Nature of the assay: MTT growth inhibition (in vitro cytotoxicity), DoHH-2. To be noted: Homo sapiens, average IC50. As for the experimental part: as §1
For assay [6], the system named is JIM1. The assay can be described thus: MTT growth inhibition (in vitro cytotoxicity), JIM1. To be noted: Homo sapiens, average IC50. On the procedure: as §1
The test system of assay [7] is KMM-1. Nature of the assay: MTT growth inhibition (in vitro cytotoxicity), KMM-1. To be noted: Homo sapiens, average IC50. As for the experimental part: as §1
Assay [8] relates to L363. Nature of the assay: MTT growth inhibition (in vitro cytotoxicity), L363. To be noted: Homo sapiens, L-363, average IC50. As for the experimental part:
as §1

In assay [9] the test system is human cancer cell lines. The assay can be described thus: Cancer cell growth inhibition, summary over cell lines. To be noted: read-out: cancer cell growth inhibition (IC50). As for the experimental part:
as §1

Assay [10] concerns BxPC-3. Nature of the assay: MTT growth inhibition (in vitro cytotoxicity), BxPC-3. To be noted: Homo sapiens, average IC50. As for the experimental part:
as §1

The test system of assay [11] is AN3CA. The assay can be described thus: MTT growth inhibition (in vitro cytotoxicity), AN3CA. To be noted: Homo sapiens, AN3-CA, average IC50. On the procedure:
as §1

The subject of assay [12] is HEC-1a. Nature of the assay: MTT growth inhibition (in vitro cytotoxicity), HEC-1a. To be noted: Homo sapiens, average IC50. On the procedure: as §1
Assay [13] relates to MDA-MB-231. The assay can be described thus: MTT growth inhibition (in vitro cytotoxicity), MDA-MB-231. To be noted: Homo sapiens, average IC50. As for the experimental part:
as §1

Assay [14] concerns MDA-MB-468. Nature of the assay: MTT growth inhibition (in vitro cytotoxicity), MDA-MB-468. To be noted: Homo sapiens, average IC50. On the procedure: as §1
The test system of assay [15] is HCC70. The assay can be described thus: MTT growth inhibition (in vitro cytotoxicity), HCC70. To be noted: Homo sapiens, average IC50. As for the experimental part:
as §1

Assay [16] deals with H1975 (EGFR mut). The assay can be described thus: MTT growth inhibition (in vitro cytotoxicity), H1975 (EGFR mut). To be noted: Homo sapiens, NCI-H1975, average IC50. As for the experimental part: as §1
Assay [17] deals with H1650(EGFR mut). Nature of the assay: MTT growth inhibition (in vitro cytotoxicity), H1650(EGFR mut). To be noted: Homo sapiens, NCI-H1650, average IC50. As for the experimental part: as §1
Assay [18] has as its system A2780CP. Nature of the assay: MTT growth inhibition (in vitro cytotoxicity), A2780CP. To be noted: Homo sapiens, A2780C/P, average IC50. On the procedure:
as §1

Assay [19] has as its system A498. Nature of the assay: MTT growth inhibition (in vitro cytotoxicity), A498. To be noted: Homo sapiens, average IC50. On the procedure:
as §1

For assay [20], the system named is SiHA. The assay can be described thus: MTT growth inhibition (in vitro cytotoxicity), SiHA. To be noted: Homo sapiens, average IC50. On the procedure: as §1
Assay [21] concerns OCI-LY3. Nature of the assay: MTT growth inhibition (in vitro cytotoxicity), OCI-LY3. To be noted: Homo sapiens, average IC50. On the procedure:
as §1

For assay [22], the system named is KMS-34. The assay can be described thus: MTT growth inhibition (in vitro cytotoxicity), KMS-34. To be noted: Homo sapiens, average IC50. On the procedure: as §1
Assay [23] deals with RPMI-8226. Nature of the assay: MTT growth inhibition (in vitro cytotoxicity), RPMI-8226. To be noted: Homo sapiens, average IC50. On the procedure: as §1
The subject of assay [24] is MOLP-8. The assay can be described thus: MTT growth inhibition (in vitro cytotoxicity), MOLP-8. To be noted: Homo sapiens, average IC50. As for the experimental part:
as §1

For orientation: IC50 means the concentration that inhibits the measured activity by half.

Read-outs that look alike come from different tables or passages of the source.

On to `COc1ccc2c3c([nH]c2c1)C(CC(CC1=NCCc2c1[nH]c1cc(OC)ccc21)c1ccccc1)=NCC3` [Compound 6, 1,1′-(2-phenylpropane-1,3-diyl)bis(7-methoxy-4,9-dihydro-3H-pyrido[3,4-b]indole)], for which the IC50 worked out at 1.85 µM in assay [1]; 2.08 µM in assay [2]; 2.95 µM in [3]; 1.58 µM in [4]; 1.98 µM in assay [5]; 2.22 µM in assay [6]. Also, the IC50 in assay [7] was 1.91 µM; in [8], 1.4 µM; in assay [9] (cell lines not specified), 4 to 7 µM.
Turning to `COc1ccc2[nH]c3c(c2c1)CCN=C3CCCCC1=NCCc2c1[nH]c1ccc(OC)cc21` [Compound 9, 1,4-bis(6-methoxy-4,9-dihydro-3H-pyrido[3,4-b]indol-1-yl)butane], the IC50 in assay [1] worked out at 6.58 µM; in assay [2] it was 20.2 µM; in [10], 10.7 µM; in assay [11], 20.7 µM; in [12], 20.7 µM; in assay [13] it was 19.4 µM. In addition, the IC50 in assay [14] worked out at 7.09 µM; in assay [15], 11.9 µM; in [16], 19.1 µM; in [17], 15.1 µM; in [3] it was 11.6 µM; in assay [18] it was 17.8 µM. In addition, the IC50 in assay [19] is 19.2 µM; in assay [20], 19.7 µM; in [4], 6.82 µM; in [5], 6.48 µM; in assay [21] it was 6.99 µM; in assay [6] it was 21.1 µM. For the same compound, the IC50 in [7] was 12.2 µM; in [22] it was 15.1 µM; in assay [23] it was 5.54 µM; in [8], 8.34 µM; in assay [24], 3.68 µM.
In the case of `COc1ccc2c3c([nH]c2c1)C(CC(CC1NCCc2c1[nH]c1cc(OC)ccc21)c1ccc(O)c(OC)c1)NCC3` (centres unmarked) [Compound 10, 4-(1,3-bis(7-methoxy-2,3,4,9-tetrahydro-1H-pyrido[3,4-b]indol-1-yl)propan-2-yl)-2-methoxyphenol], the IC50 was determined as 2.53 µM in [1]; 4.62 µM in assay [2]; 6.14 µM in assay [3]; 2.61 µM in [4]; 2.24 µM in assay [5]; 2.27 µM in assay [6]. In addition, the IC50 in assay [7] is 2.53 µM; in assay [8], 2.17 µM.
In the case of `COc1ccc2c3c([nH]c2c1)C(CC(CC1NCCc2c1[nH]c1cc(OC)ccc21)c1ccccc1)NCC3` (centres unmarked) [Compound 11, 1,1′-(2-phenylpropane-1,3-diyl)bis(7-methoxy-2,3,4,9-tetrahydro-1H-pyrido[3,4-b]indole)], the half-maximal inhibitory concentration (IC50) in [1] came out at 2.25 µM; in [2], 2.4 µM; in [3] it was 3.4 µM; in assay [4], 2.22 µM; in assay [5], 2.31 µM; in assay [6], 2.42 µM. Moreover, the IC50 in [7] is 2.05 µM; in assay [8], 1.92 µM; in [9] (cell lines not specified), 2 to 4 µM.
On to `COc1cc(C(Cc2nccc3ccccc23)Cc2nccc3ccccc23)ccc1O` [Compound 13, 4-(1,3-di(isoquinolin-1-yl)propan-2-yl)-2-methoxyphenol], for which the IC50 in assay [1] turned out to be 19.7 µM; in assay [2], 49 µM; in assay [10], 20.1 µM; in assay [11] it was 19.5 µM; in assay [12] it was 39.8 µM; in assay [13], 28.2 µM. Also, the 50% inhibitory concentration (IC50) in assay [14] worked out at 19.6 µM; in assay [15], 37.2 µM; in assay [16] it was 42.2 µM; in assay [17], 38.1 µM; in assay [3], 27.2 µM; in assay [18], 25.1 µM. For the same compound, the concentration for half-maximal inhibition (IC50) in assay [19] worked out at 38.5 µM; in assay [20], 45.2 µM; in [4] it was 33.6 µM; in assay [5], 19.5 µM; in [21] it was 36.7 µM; in assay [6], 29.2 µM. For the same compound, the IC50 in assay [7] was 14.8 µM; in assay [22] it was 11.8 µM; in assay [23], 18 µM; in assay [8] it was 29.2 µM; in assay [24], 9.71 µM.
Take `COc1cc(C(Cc2ccc3ccccc3n2)Cc2ccc3ccccc3n2)ccc1O` [Compound 16, 4-(1,3-di(quinolin-2-yl)propan-2-yl)-2-methoxyphenol]: the IC50 is 24.5 µM in assay [1]; 94.6 µM in assay [2]; 19.5 µM in assay [10]; 19.7 µM in [11]; 67.7 µM in [12]; 31.6 µM in assay [13]. For the same compound, the IC50 in assay [14] was 31.6 µM; in assay [15], 35.2 µM; in assay [16], 58.9 µM; in assay [17], 51 µM; in assay [3], 29.7 µM; in assay [18], 22.3 µM. Also, the IC50 in [19] came out at 81.3 µM; in assay [20], 84.3 µM; in assay [4] it was 49.2 µM; in [5], 14.8 µM; in [21], 77.5 µM; in assay [6], 35.4 µM. For the same compound, the half-maximal inhibitory concentration (IC50) worked out at 17 µM in [7]; 14.8 µM in [22]; 15.2 µM in [23]; 29.5 µM in assay [8]; 16 µM in [24].
`c1ccc(C(Cc2ccc3ccccc3n2)Cc2ccc3ccccc3n2)cc1` [Compound 17, 2,2′-(2-phenylpropane-1,3-diyl)diquinoline]: the IC50 came out at 13.3 µM in assay [1]; 28.7 µM in assay [2]; 7.64 µM in assay [10]; 9.35 µM in [11]; 25.4 µM in assay [12]; 14.5 µM in [13]. Besides, the IC50 in assay [14] stood at 25.8 µM; in [15], 17.2 µM; in [16] it was 30.1 µM; in assay [17], 24.6 µM; in [3] it was 13.3 µM; in [18], 9 µM. The 50% inhibitory concentration (IC50) in assay [19] stood at 21.9 µM; in assay [20], 23.5 µM; in assay [4], 18.6 µM; in assay [5], 6.9 µM; in assay [21], 23.8 µM; in [6] it was 11 µM. Besides, the IC50 stood at 7.99 µM in assay [7]; 7.85 µM in assay [22]; 7.92 µM in assay [23]; 7.99 µM in assay [8]; 6.56 µM in [24].
As to `COc1ccc2nc(CC(Cc3ccc4cc(OC)ccc4n3)c3ccccc3)ccc2c1` [Compound 18, 2,2′-(2-phenylpropane-1,3-diyl)bis(6-methoxyquinoline)], the 50% inhibitory concentration (IC50) in [1] was 21.9 µM; in [2], > 100 µM; in assay [10] it was 25.1 µM; in [11], 41.8 µM; in [12] it was 37.6 µM; in [13] it was > 100 µM. Besides, the IC50 in assay [14] is > 100 µM; in assay [15] it was > 100 µM; in assay [16], > 100 µM; in [17], 48.5 µM; in assay [3], 25.6 µM; in [18], 26.6 µM. Further, the IC50 in [19] is > 100 µM; in [20] it was > 100 µM; in [4], 30.3 µM; in assay [5], 14.3 µM; in assay [21] it was 42.2 µM; in assay [6], 31.7 µM. Further, the IC50 was 14.8 µM in [7]; 17.2 µM in assay [22]; 17.8 µM in [23]; 17.4 µM in assay [8]; 15 µM in [24].
For `COc1ccc2c3c([nH]c2c1)C(C)=NCC3` [harmaline, reference compound], the IC50 in [9] came to 25 µM.
Turning to `COc1cc(C=O)ccc1O` [vanillin, reference compound], the IC50 in assay [9] (cell lines not specified) worked out at 40 µM.
